{"source": "patent US10155777B2", "about": "“Trans-cycloheptenes and hetero-trans-cycloheptenes for bioorthogonal coupling” (UNIVERSITY OF DELAWARE, priority 2015, dated 2018)", "test": "Rate of tetrazine ligation, by restoring of fluorescence, stopped-flow spectrophotometer", "conditions": "9:1 H2O:MeOH at 25° C., low concentration", "excerpt": "The rate of the reaction between (E)-Si-(4-hydroxybutyl)-Si-methyl-5-silacycloheptene and tetramethylrhodamine-conjugated dipyridyl tetrazine was studied. The results are shown in Scheme 2. With a rate constant that exceeds 10^7 M^−1s^−1 (Scheme 2), (E)-Si-(4-hydroxybutyl)-Si-methyl-5-silacycloheptene is the most reactive dienophile to date for bioorthogonal applications. As the reaction was too rapid for reliable rate determination by UV-vis kinetics, the inventors determined the rate of the reaction by the restoring of fluorescence after tetrazine ligation at low concentration in 9:1 H2O:MeOH at 25° C. by using an SX 18MV-R stopped-flow spectrophotometer (Applied Photophysics Ltd.). This is depicted in Scheme 4."}
{"molecule": "C[Si]1(CCCCO)CCC=CCC1", "note": "[(E)-Si-(4-hydroxybutyl)-Si-methyl-5-silacycloheptene]", "values": [{"measurement": "rate constant of reaction with tetrazine", "result": "exceeds 10^7 M^−1s^−1"}]}
